Series [1] has as its system AZ521 human stomach cancer. Kind of series: In vitro anti-tumor activity against AZ-521 human stomach cancer (MTT). As to conditions: AZ-521, 72 h, MTT, read-out: IC50. The format is cell-based. In outline: (§1)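 500–2,000 cells/well, 20 h preculture 37° C/5% CO2; compound 72 h; MTT (5 mg/ml) 4 h; supernatant aspirated, formazan dissolved in DMSO.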
Series [2] concerns murine P388 lymphocytic leukemia cells. Kind of series: In vitro anti-tumor activity against murine P388 lymphocytic leukemia cells (MTT, 72 h). The format is cell-based. As to conditions: Mus musculus; murine P388 cells, 72 h, MTT; read-out: IC50 (50% proliferation inhibitory concentration). In outline: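 MTT assay, 72 h exposure; formazan dissolved in DMSO after centrifugation and supernatant removal. Absorbance read at 570 nm with 690 nm reference. IC50 (μg/ml) by least squares.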

A further series relates to C33A human cervix cancer. Briefly: In vitro anti-tumor activity against C-33A human cervix cancer (MTT). The class given is cell-based. As to conditions: C-33A, 72 h, MTT, read-out: IC50. An outline of the steps:
as §1

In series [3] the test system is MKN45 human stomach cancer. Kind of series: In vitro anti-tumor activity against MKN45 human stomach cancer (MTT). The format is cell-based. As to conditions: MKN-45, MKN45, 72 h, MTT, read-out: IC50. An outline of the steps:
as §1

The test system of series [4] is colon 26 murine tumor cells. Kind of series: Tumor growth inhibition effect on colon 26 murine tumor cells implanted mice. The class given is in vivo, SLC: CDF1 mice. As to conditions: Mus musculus, Colon 26, 504 h; ip, 3.13 mg/kg once a day, days 1-9; day 21 or 22; read-out: Tumor growth inhibition rate IR (%). In outline: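 CDF1 female mice (7–9 weeks, 7 per group) implanted intracutaneously in the abdomen with 2% brei of colon 26 cells. Compound given ip once daily from day 1 to day 9. Tumor weight estimated from diameters on day 21 or 22; IR % = [1 − (treated MTW/control MTW)] × 100.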

A short description of the next series: Solubility. As to conditions: water.
For series [5], the system named is KB human nasopharynx cancer. Kind of series: In vitro anti-tumor activity against KB human nasopharynx cancer (MTT). The format is cell-based. As to conditions: KB, 72 h, MTT, read-out: IC50. In outline:
as §1

For the next series, the system named is HMV2 human melanoma. Kind of series: In vitro anti-tumor activity against HMV-2 human melanoma (MTT). The format is cell-based. As to conditions: HMV-2, 72 h, MTT, read-out: IC50. In outline: as §1
Series [6] concerns WiDr human colorectal cancer. Kind of series: In vitro anti-tumor activity against WiDr human colorectal cancer (MTT). The format is cell-based. As to conditions: 72 h, MTT, read-out: IC50. An outline of the steps: as §1
The next series in a line: Acute toxicity. As to conditions: mouse, in vivo, mice, 14th day. Here is the method: Solutions of test compounds in predetermined concentrations were administered (0.1 ml/10 g body weight) to female BALB/c CrSlc mice (5 to 10 animals per one group, 10 weeks old) respectively, and, thus, LD50 values were calculated from the mortalities of the mice on the 14th day after the administration.

In the next series the test system is A427 human lung cancer. Kind of series: In vitro anti-tumor activity against A-427 human lung cancer (MTT). As to conditions: A-427, 72 h, MTT, read-out: IC50. The class given is cell-based. In outline:
as §1

In series [7] the test system is murine P388 lymphocytic leukemia cells. Kind of series: Increases in life span of mice implanted with murine P388 lymphocytic leukemia cells. The format is in vivo, SLC: BDF1 mice. As to conditions: Mus musculus, P388, ip, 720 h, ip.
The subject of another series is tumor. As to conditions: Cancer Research 52, 2818 (1992); cited from earlier work.
Setting [8] is: NCI criterion, read-out: Evaluation.
The mark [9] stands for this setting: days 1 and 5, in solution, read-out: ILS (%) (in solution).
The mark [10] stands for this setting: days 1 and 5, in suspension, read-out: ILS (%) (in suspension).

The structures appear in SMILES notation. Read-outs that look alike come from different tables or passages of the source.

Regarding `Cl.NC1CCN(c2ccc3c(=O)c(C(=O)O)cn(-c4nccs4)c3n2)C1` (stereo not shown) [Compound 3, 7-(3-amino-1-pyrrolidinyl)-1,4-dihydro-4-oxo-1-(2-thiazolyl)-1,8-naphthyridine-3-carboxylic acid hydrochloride], the IC50 was found to be 0.181 µg/mL in [1]; 0.0103 µg/mL in series [2]; 0.184 µg/mL with C33A human cervix cancer; 0.364 µg/mL in [3]; 0.153 µg/mL in series [5]; 0.21 µg/mL with HMV2 human melanoma. For the same compound, the figures for the IC50 (in series [6]; with A427 human lung cancer) were 1.08 µg/mL and 0.0588 µg/mL, respectively. Besides, the inhibition in vivo at 3.13 mg/kg in series [4] is 77%. In “Solubility”, this compound returned a solubility of 8300 µg/mL. In addition, the median lethal dose (LD50) at 336 h came out at 55.2 mg/kg in “Acute toxicity” (Intraperitoneal administration (ip)) and 119 mg/kg in “Acute toxicity” (Intravenous administration (iv)). Also, the ILS at 1.56 mg/kg in series [7] (setting [8]) is 20 to 74%; in [7] (setting [9]) it was 63%. Also, the results for the ILS at 3.13 mg/kg in series [7] (setting [8]), in [7] (setting [9]) and in series [7] (setting [10]) were greater than 75%, 75% and 88%, respectively. In addition, the ILS at 6.25 mg/kg in series [7] (setting [8]) was greater than 75%; in [7] (setting [9]) it was 113%. Also, the values for the ILS at 12.5 mg/kg in series [7] (setting [8]), in series [7] (setting [9]) and in [7] (setting [10]) were greater than 75%, 188% and 175%, respectively. Also, the ILS at 25 mg/kg is greater than 75% in series [7] (setting [8]) and greater than 275% in [7] (setting [9]).
Consider `NCC1CCN(c2c(F)cc3c(=O)c(C(=O)O)cn(C4CC4)c3c2F)C1` (stereo not shown) [Compound G], for which, in the series on tumor, the “anti-tumor activity, in words” value is given as “has anti-tumor activity”.

As usually defined, the solubility is the dissolved amount per volume that the medium holds. What is called LD50 is the dose expected to kill half of the subjects tested.

(Values after US5817669A, “Compounds, processes for the preparation thereof and anti-tumor agents” (Dainippon Pharmaceutical Co., Ltd., priority 1994, dated 1998).)
